{"source": "patent US11896594B2", "about": "“Palatable antiparasitic formulations” (Zoetis Services LLC, priority 2018, dated 2024)", "key": {"D. immitis": {"tested_on": "D. immitis", "test": "Prevention of heartworm disease in dogs", "type": "in vivo", "settings": "sensitive isolates; single dose; dogs"}, "[1]": {"test": "Moxidectin degradation in compressed tablets on accelerated stability (40° C./75% RH)", "type": "physicochemical", "settings": "for moxidectin degradation in the final tablets: 3 months 40°/75% RH; for moxidectin degradation: 40° C./75% RH; for moxidectin degradation in the finished product: 6 months accelerated stability", "excerpt": "For the moxidectin granulation, four different polymers were screened. Initially, the moxidectin-polymer ratio was about 1:160 (about 21.82 w/w % polymer of intra granular portion). The polymers included hypromellose [hydroxypropylmethyl cellulose (HPMC), Poloxamer 188 (P188), ethyl cellulose, and hydroxypropyl methyl cellulose acetyl succinate MG (HPMC AS MG). […] Use of the polymers in the moxidectin granulation process provided stability to the moxidectin. […] HPMC concentration was then assessed to determine the effect on moxidectin stability in compressed tablets. Concentrations of moxidectin:HPMC were 1:20, 1:80, 1:120, and 1:160 in the moxidectin granulation. These amounts accounted for about 2.72 w/w %, 10.91 w/w %, 16.36 w/w %, and 21.82 w/w % of the moxidectin granulation, respectively. […] Therefore, the 1:80 ratio of moxidectin to HPMC was used to prepare the moxidectin granulations. The amount of HPMC in the moxidectin granulation is about 6 to 18 w/w %; the preferred amount is about 10 to 12 w/w %; and the most preferred amount is about 11 w/w %. In the final composition, the amount of HPMC is about 2.0 w/w % to about 4.0 w/w % of the total tablet weight; and more preferably, about 2.0 to 3 w/w % of the total tablet weight; and even more preferably, about 2.0 to 2.5 w/w % of the total tablet weight. To further control moxidectin degradation, the stability enhancer, meglumine, and the antioxidant, BHT, were added to the moxidectin granulation. […] Use of the higher concentration (2.72 w/w %) of meglumine was used initially to better control the acid catalyzed degradants. However, at 6 months, there was a greater increase in base catalyzed degradation of moxidectin at this concentration of meglumine. […] Similarly, moxidectin degradation was assessed using varying amounts of BHT in the moxidectin granulation."}}}
{"smiles": "CO/N=C1\\C[C@]2(C[C@@H]3C[C@@H](C/C=C(\\C)C[C@@H](C)/C=C/C=C4\\CO[C@@H]5[C@H](O)C(C)=C[C@@H](C(=O)O3)[C@]45O)O2)O[C@H](/C(C)=C/C(C)C)[C@H]1C", "note": "[moxidectin]", "values": [{"measurement": "efficacy against sensitive D. immitis isolates", "setting": "D. immitis", "value": 100, "unit": "%"}, {"measurement": "moxidectin degradation in the final tablets", "setting": "[1]; BHT 0 w/w % in moxidectin granulation", "value": "about 2.7%"}, {"measurement": "moxidectin degradation in the final tablets", "setting": "[1]; BHT 0.095 w/w % in granulation (0.018 w/w % of tablet)", "value": "about 1.4%"}, {"measurement": "moxidectin degradation in the final tablets", "setting": "[1]; BHT 0.19 w/w % in granulation (0.037 w/w % of tablet)", "value": "about 2.3%"}, {"measurement": "moxidectin degradation in the final tablets", "setting": "[1]; BHT 0.38 w/w % in granulation (0.074 w/w % of tablet)", "value": "about 2.2%"}, {"measurement": "moxidectin degradation", "setting": "[1]; HPMC AS MG in moxidectin granulation (about 1:160), 3-months", "value": 12.1, "unit": "%"}, {"measurement": "moxidectin degradation", "setting": "[1]; HPMC in moxidectin granulation (moxidectin-polymer about 1:160), 3-months", "value": 3.6, "unit": "%"}, {"measurement": "moxidectin degradation", "setting": "[1]; P188 (Poloxamer 188) in moxidectin granulation (about 1:160), 3-months", "value": 5.2, "unit": "%"}, {"measurement": "total moxidectin degradation", "setting": "[1]; compressed tablets manufactured with HPMC, 6-month accelerated stability", "value": "5-6%"}, {"measurement": "moxidectin degradation", "setting": "[1]; ethyl cellulose in moxidectin granulation (about 1:160), 3-months", "value": 7.4, "unit": "%"}, {"measurement": "moxidectin degradation in the final tablets", "setting": "[1]; meglumine 0 w/w % in moxidectin granulation", "value": "about 2.4%"}, {"measurement": "moxidectin degradation in the final tablets", "setting": "[1]; meglumine 1.36 w/w % in granulation (0.27 w/w % of tablet)", "value": "about 1.0%"}, {"measurement": "moxidectin degradation in the final tablets", "setting": "[1]; meglumine 2.72 w/w % in granulation (0.54 w/w % of tablet)", "value": "about 0.7%"}, {"measurement": "moxidectin degradation in the finished product", "setting": "[1]; moxidectin:HPMC 1:20 (2.72 w/w % of granulation)", "value": 5.04, "unit": "%"}, {"measurement": "moxidectin degradation in the finished product", "setting": "[1]; moxidectin:HPMC 1:80 (10.91 w/w % of granulation)", "value": 2.41, "unit": "%"}, {"measurement": "moxidectin degradation in the finished product", "setting": "[1]; moxidectin:HPMC 1:120 (16.36 w/w % of granulation)", "value": 2.26, "unit": "%"}, {"measurement": "moxidectin degradation in the finished product", "setting": "[1]; moxidectin:HPMC 1:160 (21.82 w/w % of granulation)", "value": 1.75, "unit": "%"}, {"measurement": "moxidectin degradation", "setting": "[1]; without the use of a polymer, compressed tablets, 2-months", "value": 16.7, "unit": "%"}]}
